The results in this text go back to EP0178503A1, “Butenyl derivatives, process for their preparation and medicines containing them” (LUDWIG HEUMANN & CO GMBH, priority 1984, dated 1986).

Each structure is given as a SMILES string.

The target of the assay is T1, Histamin-H2-Rezeptoren (Cavia porcellus, UniProt P47747).
T1 construct: Kontraktionsfrequenz des isolierten rechten Atriums des Meerschweinchens; from tissue; host or cells: isolated guinea pig (right) atrium
Briefly: pA2 determination in vitro on guinea pig atrium (method of Ariens). Particulars: Meerschweinchenvorhof, H2-antagonistic activity, Molec. Pharmac., Band 1 (1964). The assay is classed as biochemical, Meerschweinchen.

T1 sequence (P47747 whole entry): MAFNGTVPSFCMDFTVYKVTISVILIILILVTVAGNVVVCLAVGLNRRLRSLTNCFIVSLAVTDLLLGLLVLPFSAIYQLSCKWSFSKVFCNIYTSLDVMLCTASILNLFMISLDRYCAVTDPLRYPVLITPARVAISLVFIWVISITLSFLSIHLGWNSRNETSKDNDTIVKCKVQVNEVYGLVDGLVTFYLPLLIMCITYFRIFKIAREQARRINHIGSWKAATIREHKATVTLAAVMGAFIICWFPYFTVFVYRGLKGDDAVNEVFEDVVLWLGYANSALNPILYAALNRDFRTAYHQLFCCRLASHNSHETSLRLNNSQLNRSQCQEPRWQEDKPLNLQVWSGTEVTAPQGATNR
Text: Die pharmakologische Aktivität dieser Verbindungen kann nach einer modifizierten Methode gemäß der DE OS 2734070 beim perfundierten Rattenmagen gezeigt werden oder durch die Ermittlung der pA2-Werte in vitro am Meerschweinchenvorhof (vergleiche Ariens, Molec. Pharmac., Band 1, Academic Press, New York, 1964) nachgewiesen werden.

As a reminder, the Kb is the equilibrium dissociation constant of an antagonist, usually derived from a functional assay. A lower Kb goes with higher antagonist affinity. Compound `CNC(=C[N+](=O)[O-])NCC=CCOc1cccc(CN2CCCCC2)c1` [Beispiel 4, 1-Methylamino-1-[4-[3-(piperidinomethyl)phenoxy]but-2-enyl] amino-2-nitro-ethylen] had a Kb of 31.6 nM.
